Laboratory results reported in US11542225B2, “Lipids for use in lipid nanoparticle formulations” (ACUITAS THERAPEUTICS, INC., priority 2017, dated 2023).
Where two headings read alike, the source gives them in different places.

What was measured:
[1] = Determination of pKa of formulated lipids (TNS fluorescence assay in lipid nanoparticles); assay type: physicochemical
Source text: As described elsewhere, the pKa of formulated lipids was correlated with the effectiveness of LNPs for delivery of nucleic acids (see Jayaraman et al, Angewandte Chemie, International Edition (2012), 51(34), 8529-8533; Semple et al, Nature Biotechnology 28, 172-176 (2010)). In some embodiments, the preferred range of pKa was ˜5 to ˜7. […] Lipid nanoparticles comprising compound of structure (I)/DSPC/cholesterol/PEG-lipid (50/10/38.5/1.5 or 47.5:10:40.8:1.7 mol %) in PBS at a concentration of 0.4 mM total lipid were prepared using the in-line process as described in Example 1. TNS was prepared as a 100 μM stock solution in distilled water. Vesicles were diluted to 24 μM lipid in 2 mL of buffered solutions containing 10 mM HEPES, 10 mM MES, 10 mM ammonium acetate, and 130 mM NaCl, where the pH ranged from 2.5 to 11. An aliquot of the TNS solution was added to give a final concentration of 1 μM and following vortex mixing fluorescence intensity was measured at room temperature in a SLM Aminco Series 2 Luminescence Spectrophotometer using excitation and emission wavelengths of 321 nm and 445 nm. A sigmoidal best fit analysis was applied to the fluorescence data and the pKa was measured as the pH giving rise to half-maximal fluorescence intensity.

[2] = test system: luciferase expression in the liver; assay: Luciferase mRNA in vivo evaluation using lipid nanoparticle compositions; parameters: species or system mice; conditions: novel lipids; values marked * in the 1.0 mg/kg column: dosed at 0.5 mg/kg; tail vein injection, 4 hours after administration
[3] = test system: luciferase expression in the liver; assay: as above; parameters: species or system mice; conditions: for Liver Luc @ 0.3 mg/kg (ng luc/g liver) / Liver Luc @ 1.0 mg/kg (ng luc/g liver): novel lipids, tail vein injection, 4 hours after administration; for Liver Luc @ 0.3 mg/kg (ng luc/g liver): 0.3 mg mRNA/kg; for Liver Luc @ 1.0 mg/kg (ng luc/g liver): 1.0 mg mRNA/kg
Protocol: A lipid of structure (I), DSPC, cholesterol and PEG-lipid were solubilized in ethanol at a molar ratio of 50:10:38.5:1.5 or 47.5:10:40.8:1.7. Lipid nanoparticles (LNP) were prepared at a total lipid to mRNA weight ratio of approximately 10:1 to 30:1. Briefly, the mRNA was diluted to 0.2 mg/mL in 10 to 50 mM citrate buffer, pH 4. Syringe pumps were used to mix the ethanolic lipid solution with the mRNA aqueous solution at a ratio of about 1:5 to 1:3 (vol/vol) with total flow rates above 15 mL/min. The ethanol was then removed and the external buffer replaced with PBS by dialysis. Finally, the lipid nanoparticles were filtered through a 0.2 μm pore sterile filter.
Studies were performed in 6-8 week old female C57BL/6 mice (Charles River) 8-10 week old CD-1 (Harlan) mice (Charles River) according to guidelines established by an institutional animal cwere committee (ACC) and the Canadian Council on Animal Cwere (CCAC). Varying doses of mRNA-lipid nanoparticle were systemically administered by tail vein injection and animals euthanized at a specific time point (e.g., 4 hours) post-administration. Liver and spleen were collected in pre-weighed tubes, weights determined, immediately snap frozen in liquid nitrogen and stored at −80° C. until processing for analysis.
For liver, approximately 50 mg was dissected for analyses in a 2 mL FastPrep tubes (MP Biomedicals, Solon Ohio). ¼″ ceramic sphere (MP Biomedicals) was added to each tube and 500 μL of Glo Lysis Buffer—GLB (Promega, Madison Wis.) equilibrated to room temperature was added to liver tissue. Liver tissues were homogenized with the FastPrep24 instrument (MP Biomedicals) at 2×6.0 m/s for 15 seconds. Homogenate was incubated at room temperature for 5 minutes prior to a 1:4 dilution in GLB and assessed using SteadyGlo Luciferase assay system (Promega). Specifically, 50 μL of diluted twassue homogenate was reacted with 50 μL of SteadyGlo substrate, shaken for 10 seconds followed by 5 minute incubation and then quantitated using a CentroXS^3 LB 960 luminometer (Berthold Technologies, Germany). The amount of protein assayed was determined by using the BCA protein assay kit (Pierce, Rockford, Ill.). Relative luminescence units (RLU) were then normalized to total μg protein assayed. To convert RLU to ng luciferase a standard curve was generated with QuantiLum Recombinant Luciferase (Promega).
The FLuc mRNA (L-6107) from Trilink Biotechnologies will express a luciferase protein, originally isolated from the firefly, Photinus pyralwas. FLuc was commonly used in mammalian cell culture to measure both gene expression and cell viability. It emits bioluminescence in the presence of the substrate, luciferin. This capped and polyadenylated mRNA was fully substituted with 5-methylcytidine and pseudouridine.
Compounds of structure (I) were formulated using the following molar ratio: 47.5% cationic lipid/10% dwastearoylphosphatidylcholine (DSPC)/40.8% Cholesterol/1.7% PEG lipid (“PEG-DMA” 2-[2-(ω-methoxy(polyethyleneglycol2000)ethoxy]-N,N-ditetradecylacetamide). Relative activity was determined by measuring luciferase expression in the liver 4 hours following administration via tail vein injection as described in Example 1. The activity was compared at a dose of 0.3 and 1.0 mg mRNA/kg and expressed as ng luciferase/g liver measured 4 hours after administration, as described in Example 1.
The cationic lipids shown in Table 2 have previously been tested with nucleic acids. For comparative purposes, these lipids were also used to formulate lipid nanoparticles containing the FLuc mRNA (L-6107) using an in line mixing method, as described in Example 1 and in PCT/US10/22614, which is hereby incorporated by reference in its entirety. […]

[4] = Table 3, lipid formulated in LNP, TNS assay

pKa [1, 4] | pKa [1] | Compound | Liver Luc (ng luc/g liver), dosed at 0.5 mg/kg [2] | Relative activity in the luciferase assay relative to MC3 ([3]; luciferase expression in liver 4 hours after tail vein injection, 47.5/10/40.8/1.7 formulation with PEG-DMA) | Liver Luc @ 0.3 mg/kg (ng luc/g liver) [3] | Liver Luc @ 1.0 mg/kg (ng luc/g liver) [3]
6.18 |  | CCCCCCCCC(CCCCCC)COC(=O)CCCCCCCN(CCCCCCCC(=O)OCC(CCCCCC)CCCCCCCC)CCCCOCC(O)C(O)COCCCCN(CCCCCCCC(=O)OCC(CCCCCC)CCCCCCCC)CCCCCCCC(=O)OCC(CCCCCC)CCCCCCCC (stereo not shown) [Compound 1] | 174 ± 43* ng luc/g liver |  |  | 
 | 6.14 | CCCCCCCCC(CCCCCC)COC(=O)CCCCCN(CCCCCC(=O)OCC(CCCCCC)CCCCCCCC)CCCOCC(O)C(O)COCCCN(CCCCCC(=O)OCC(CCCCCC)CCCCCCCC)CCCCCC(=O)OCC(CCCCCC)CCCCCCCC (stereo not shown) [Compound 2] |  | 4.4 | 1225 ± 159 ng luc/g liver | 4876 ± 1273 ng luc/g liver
5.3 |  | CCCCCCCCC(CCCCCC)COC(=O)CCCCCN(CCCCCC(=O)OCC(CCCCCC)CCCCCCCC)CCCOCCOCCOCCCN(CCCCCC(=O)OCC(CCCCCC)CCCCCCCC)CCCCCC(=O)OCC(CCCCCC)CCCCCCCC (stereo not shown) [Compound 3] |  |  | 33 ± 9 ng luc/g liver | 99 ± 41 ng luc/g liver
 | 7.2 | CCCCCCCCC(CCCCCC)COC(=O)CCCCCC(CCCCCC(=O)OCC(CCCCCC)CCCCCCCC)NCCCOCCOCCOCCCNC(CCCCCC(=O)OCC(CCCCCC)CCCCCCCC)CCCCCC(=O)OCC(CCCCCC)CCCCCCCC (stereo not shown) [Compound 4] |  |  |  | 
 | 4.24 | CCCCCCCCC(CCCCCC)C(=O)OCCCCCCCCCC(CCCCCCCCCOC(=O)C(CCCCCC)CCCCCCCC)OC(=O)CCCCNCCCCN(C)CCCCC(=O)OC(CCCCCCCCCOC(=O)C(CCCCCC)CCCCCCCC)CCCCCCCCCOC(=O)C(CCCCCC)CCCCCCCC (stereo not shown) [Compound 5] |  |  |  | 
5.81 |  | CCCCCCCCC(CCCCCC)COC(=O)CCCCCN(CCCCCC(=O)OCC(CCCCCC)CCCCCCCC)CCCN(C)CCCN(CCCCCC(=O)OCC(CCCCCC)CCCCCCCC)CCCCCC(=O)OCC(CCCCCC)CCCCCCCC (stereo not shown) [Compound 6] |  |  | 92 ± 13 ng luc/g liver | 169 ± 46 ng luc/g liver
5.91 |  | CCCCCCC(CCCC)COC(=O)CCCCCN(CCCCCC(=O)OCC(CCCC)CCCCCC)CCCN(C)CCCN(CCCCCC(=O)OCC(CCCC)CCCCCC)CCCCCC(=O)OCC(CCCC)CCCCCC (stereo not shown) [Compound 7] |  |  | 590 ± 98 ng luc/g liver | 2473 ± 443 ng luc/g liver
6.53 |  | CCCCCCCCC(CCCCCC)COC(=O)CCCCCC(CCCCCC(=O)OCC(CCCCCC)CCCCCCCC)NCCCOCCOCCOCCCN(CCCCCC(=O)OCC(CCCCCC)CCCCCCCC)CCCCCC(=O)OCC(CCCCCC)CCCCCCCC (stereo not shown) [Compound 8] | 479 ± 163* ng luc/g liver |  |  | 
